Legend:
[1] = Transmission electron microscopy (TEM) of fibrils; type: physicochemical; parameters: key: +: ﬁbrils present; −: absent in EM micrographs; conditions: uranyl acetate stain
Protocol: The samples of the amyloid library (50 mM HEPES pH 7.3 or 50 mM NaOAc pH 4) were applied directly to glow-discharged carbon-coated grids, washed and then stained with uranyl acetate. Images were recorded on a Philips CM 12 electron microscope.
(§1) Table A and associated data: Biophysical characterization of library
(§2) Sequence ThT1 CD2 FTIR3 EM4 ThT CD FTIR EM X-ray5 […]
4. (+) ﬁbrils present or (−) absent in EM micrographs. […]

[2] = Thioflavin T fluorescence (ThT); type: physicochemical; conditions: crude peptide fibrillized at 160 μM, mixed 10:1 with 50 μM ThT, ex 440 nm em 480 nm
Protocol: The samples of the amyloid library (50 mM HEPES pH 7.3 or 50 mM NaOAc pH 4) were mixed 10:1 with 50 μM ThT and the increase in fluorescence was measured in a 384-well plate in a BMG Pherastar platereader (ex: 440 nm em: 480 nm). The background signal from the peptides without ThT was subtracted from the one with the ThT present in the sample. Due to the large dynamic range of the signals among the many samples, the measurements were made at two different gain settings to ensure that all of the signals fell within the measureable range.
as §1
Sequence ThT1 CD2 FTIR3 EM4 ThT CD FTIR EM X-ray5
1. Fold increase in ThT ﬂuorescence over background. […]

[3] = Circular dichroism (CD), secondary structure of aggregates; type: physicochemical; parameters: key: β+: has minimum near 217 nm; β++: has minimum near 217 nm and a maximum near 197 nm; −: signal too weak to interpret; ?: spectra not typical of any secondary structure
Protocol: The concept of creating an amyloid library out of a peptide library is only meaningful if the vast majority of the peptides actually form amyloids in at least one of the conditions tested. To establish the validity of our amyloid library we measured circular dichroism (CD), Fourier transform infrared spectroscopy (ATR-FTIR), as well as thioflavin T (ThT) fluorescence of peptides 1–33 at pH 7.3 (50 mM HEPES) and pH 4 (50 mM NaOAc) (see interactive Table A and associated data in S1 File). Based on the analysis of the CD and ATR-FTIR spectra (shown in the interactive Table A in S1 File) all the peptides formed β-structured aggregates in at least one condition. Most of the 33 peptides induced a significant increase in ThT fluorescence in at least one condition. […] The fibrils from a selection of the active peptides were aligned and analyzed by X-ray diffraction (Figures C and D in S1 File). In each case we observed the cross-β diffraction pattern typical of amyloid fibrils, although the degree of sample alignment varied. For two samples, 14 and 27, the difference in meridional and equatorial diffraction intensities was small but easily detected in a plot of the angular dependence of the intensity (Figure D in S1 File). The conclusion that can be drawn out of the multiple analysis techniques is that the 33 peptides that comprise the library are overwhelmingly prone to form fibril-like, β-structured aggregates. The cross-β diffraction of the tested aggregates would imply that they are more specifically all amyloidogenic.
CD measurements were carried out on a Jasco J815. Samples were prepared by centrifuging the amyloid library at 25,000 g for 10 min and then removing the supernatant. The pellets were resuspended at an approximate concentration of 100 μg/ml in 10 mM HEPES pH 7.3 (for mixtures from 50 mM HEPES) or 10 mM NaOAc pH 4 (for mixtures from 50 mM NaOAc), the suspensions were then treated with an ultrasonic probe for 5 s, upon which the solutions were placed in 1 mm cuvettes, diluted as necessary to maintain the detector voltage below 600 V and scanned from 260–190 nm at 50 nm/min, 1 nm band-pass, 2 second integration, averaged over 3 repetitions.
as §1, §2
2. […]

[4] = Plate reader 4NPA hydrolysis kinetics of purified peptide amyloids at pH 7.3; type: biochemical; conditions: 4NPA hydrolysis, pH 7.3 HEPES with zinc(II), 20 μM purified peptide; for k cat/K M: 0.1-1.0 mM 4NPA, 1% CH3CN, A400, Michaelis-Menten fit, triplicate (duplicate for 8, 27, 34, 35); for k cat/K M / k cat: per monomer peptide; for K M / k cat: Michaelis-Menten fit
Protocol: The reaction buffer consisted of the same buffer as the fibrillization buffer without ZnCl2 and with 1.33 mM 4NPA prepared from a 100 mM stock in CH3CN. The samples of the amyloid library were mixed 1:3 with the reaction buffer yielding 40 μM peptide and, when present 250 μM zinc(II). The absorbance measurements were performed in a BMG Pherastar platereader with a 400 nm band-pass filter (10 nm bandwidth) in 96-well Nunclon Delta surface plates or 384-well Greiner Bio-One non-bind black μclear plates.
The kinetics assays performed on the purified peptides were prepared similarly except that the peptide concentration was 20 μM in the reaction. Furthermore, the various substrate concentrations and replicate samples were randomly distributed over the plate to minimize systematic errors. Various 4NPA concentrations (i.e. 0.1 mM, 0.2 mM, 0.4 mM, 0.6 mM, 1.0 mM) were added from a 100 times stock so that the final CH3CN concentration was always 1%. The linear part of the hydrolysis activity was fit with an extinction coefficient of ε = 9700 M^-1cm^-1 and corrected for the background reaction rate of buffer alone (v bg = 5.0 × 10^-6 Ms^-1) to obtain the initial reaction rate v 0. The average of the initial reaction rates at each substrate concentration were then fit to the Michaelis-Menten type kinetics to obtain k cat, K M and k cat/K M always calculated per monomer peptide. The background reaction rate was obtained similarly using 5 replicates.

[5] = ATR-FTIR, amide I peak of aggregates; type: physicochemical; parameters: key: indicates that no peak was observed within the typical range of stretching frequencies forβ-structure (between dashed lines at 1638 cm−1 and 1615 cm−1); conditions: air-dried pellet, crude peptide
Protocol: Samples were prepared as for the CD measurements, but instead of re-suspending the samples after centrifugation, 3 μl of H2O were added to the pellet so that it could be placed onto the diamond ATR cell of a Bruker Alpha-p ATR-FTIR spectrometer followed by air-drying before measuring the spectra. Blank subtraction was performed with an empty cell (air) and all measurements were performed without the pressure applicator.
as §1, §2
3. The peak position in amide I region is given in cm−1. […]

[6] = pH 4.0, pellet (25,000 g, 10 min) resuspended ~100 μg/ml in 10 mM NaOAc pH 4, crude peptide
[7] = pH 7.3, pellet (25,000 g, 10 min) resuspended ~100 μg/ml in 10 mM HEPES pH 7.3, crude peptide

| Substance | EM, fibrils in EM micrographs ([1]; pH 7.3, 50 mM HEPES) | ThT, fold increase in ThT fluorescence over background ([2]; pH 4.0, 50 mM NaOAc) [fold] | ThT, fold increase in ThT fluorescence over background ([2]; pH 7.3, 50 mM HEPES) [fold] | CD spectrum class [3, 6] | CD spectrum class [3, 7] | k cat/K M [4] [M⁻¹ s⁻¹] | K M [4] [mM] | k cat [4] | FTIR peak position in amide I region ([5]; pH 4.0 (50 mM NaOAc)) | FTIR peak position in amide I region ([5]; pH 7.3 (50 mM HEPES)) | EM, fibrils in EM micrographs ([1]; pH 4.0, 50 mM NaOAc) |
| --- | --- | --- | --- | --- | --- | --- | --- | --- | --- | --- | --- |
| Ac-YVAVHVHV-NH2 [Peptide 27, Ac-YVAVHVHV-CONH2] | + | 1 | 129 | − | β+ | 4.26 ± 0.13 | 7.2 ± 2.1 | 3.05±0.80 10^-2s^-1 | − | 1625 cm⁻¹ |  |
| Ac-YVDVHVDV-NH2 [Peptide 25, Ac-YVDVHVDV-CONH2] |  | 9 | 2 | β++ | − |  |  |  | 1623 cm⁻¹ | − | + |
| Ac-YVHVHVDV-NH2 [Peptide 21, Ac-YVHVHVDV-CONH2] | + | 1 | 133 |  | β+ | 0.473 ± 0.046 | 1.23 ± 0.32 | 0.059±0.010 10^-2s^-1 | − | 1626 cm⁻¹ | + |
| Ac-YVHVHVHV-NH2 [Peptide 8, Ac-YVHVHVHV-CONH2] | + | 1 | 126 | − | β+ | 2.288 ± 0.077 | 2.39 ± 0.32 | 0.547±0.056 10^-2s^-1 | − | 1627 cm⁻¹ | − |
| Ac-YVHVHVSV-NH2 [Peptide 11, Ac-YVHVHVSV-CONH2] | + | 1 | 18 | − | β++ | 6.29 ± 0.52 | 0.87 ± 0.15 | 0.514±0.051 10^-2s^-1 | − | 1624 cm⁻¹ |  |
| Ac-YVSVHVHV-NH2 [Peptide 9, Ac-YVSVHVHV-CONH2] | + | 1 | 82 | − | β++ | 1.461 ± 0.094 | 3.71 ± 0.39 | 0.544±0.048 10^-2s^-1 | − | 1624 cm⁻¹ |  |
